Laboratory results taken from patent US20210161131A1, “cis-p-Menthane-1,8-Di-secondary Amine Compounds as well as Their Preparation Methods and Application in Weed Control” (RESEARCH INSTITUTE OF FORESTRY NEW TECHNOLOGY, CHINESE …, priority 2019, published 2021).

System: barnyard grass seeds
Assay: Petri dish seed germination method: inhibition of root and stem growth of barnyard grass
Format: in vivo
Settings: 96 hours incubation
Method: (§1) Step 2: Accurately weigh 1 mmol cis-p-menthane-1,8-di-Schiff base compounds and cis-p-menthane-1,8-di-secondary amine compounds respectively, dissolve each of them with 0.25 mL DMF, and add a drop of Tween 80 in each resulted solution. After being fully dissolved, each solution is transferred to a 100 mL volumetric flask respectively and then diluted to the mark with distilled water to obtain a solution with a concentration of 10 mmol/L as the mother liquor. The two-fold dilution method is used to prepare diluted solutions with a series of concentrations (the concentrations of DMF and Tween 80 in the diluted solutions are the same as those in the mother liquor).
(§2) Barnyard grass seeds are placed in a 28° C. incubator and are soaked in an appropriate amount of distilled water for 12 hours there. After the clean water is filtered out, the seeds are then placed in the 28° C. incubator for 24 hours to germinate. Spread 2 pieces of filter paper in each of several Petri dishes, and place 10 barnyard grass seeds with the same size in each dish. Repeat each treatment for three times The dishes are divided into two groups: test dishes and control dishes. Add into each test dish 10 mL of the sample solution with the corresponding concentration of the target compound, and add into each control dish the same amount of the mixture of water, DMF and Tween 80 as the blank control. Add 10 seeds to each of the dishes (both test dishes and control dishes), place them in an artificial climate incubator, and incubate them for 96 hours under a temperature of 28° C., an illumination of 5000 1×, a photoperiod of day:night=16:8 and a relative humidity of 70-80%. The experimental data is processed and analyzed with DPS software to calculate the inhibition rate (y) of cis-p-menthane-1,8-di-secondary amine compounds on the root growth or stem growth of barnyard grass seeds.
Wherein, y is the inhibition rate of root growth or stem growth (%), x0 is the root length or stem length of the control, and x1 is the root length or stem length of the sample.
as §1, with “Accurately” for “Step 2: Accurately”, “cis-p-menthane-1,8-bis-(4-chlorophenyl)Schiff” for “cis-p-menthane-1,8-di-Schiff”, “base” for “base compounds”, “cis-p-menthane-1,8-bis-(4-chlorobenzyl)amine” for “cis-p-menthane-1,8-di-secondary amine compounds”, “(5 mmol/L, 2.5 mmol/L, 1.25 mmol/L, 0.625 mmol/L, 0.3125 mmol/L and 0.1563 mmol/L; the” for “(the”
as §2, with “placed in a 30° C. incubator” for “placed in the 28° C. incubator”, “in each Petri dish,” for “in each of several Petri dishes,”, “each Petri dish, and place” for “several Petri dishes, and place”, “with the above corresponding concentration” for “with the corresponding concentration”, “with DPS software.” for “with DPS software to calculate the inhibition rate (y) of cis-p-menthane-1,8-di-secondary amine compounds on the root growth or stem growth of barnyard grass seeds.”

Row | SMILES | inhibition rate on the root growth of barnyard grass seeds (0.15625 mmol/L) [%] | inhibition rate on the stem growth of barnyard grass seeds (0.15625 mmol/L) [%] | inhibition rate on the root growth of barnyard grass seeds (0.3125 mmol/L) [%] | inhibition rate on the stem growth of barnyard grass seeds (0.3125 mmol/L) [%] | inhibition rate on the root growth of barnyard grass seeds (0.625 mmol/L) [%] | inhibition rate on the stem growth of barnyard grass seeds (0.625 mmol/L) [%] | inhibition rate on the root growth of barnyard grass seeds (1.25 mmol/L) [%] | inhibition rate on the stem growth of barnyard grass seeds (1.25 mmol/L) [%] | inhibition rate on the root growth of barnyard grass seeds (2.5 mmol/L) [%] | inhibition rate on the stem growth of barnyard grass seeds (2.5 mmol/L) [%] | inhibition rate on the root growth of barnyard grass seeds (5 mmol/L) [%] | inhibition rate on the stem growth of barnyard grass seeds (5 mmol/L) [%]
1 | CC1(NCc2ccco2)CCC(C(C)(C)NCc2ccco2)CC1 (stereo not drawn) [cis-p-menthane-1,8-bis(furan-2-methyl)amine] | 0 | 0 | 36.3 | 8.6 | 39.0 | 16.1 | 48.8 | 19.3 | 72.7 | 41.1 | 92.7 | 65.3
2 | CC(C)(NCc1ccccn1)[C@H]1CC[C@@](C)(NCc2ccccn2)CC1 [cis-p-menthane-1,8-bis(pyridine-2-methyl)amine] | 18.9 | 23.8 | 20.5 | 26.4 | 33.8 | 30.1 | 61.0 | 46.6 | 95.8 | 65.3 | 100.0 | 88.0
3 | CC1(NCc2cccnc2)CCC(C(C)(C)NCc2cccnc2)CC1 (stereo not drawn) [cis-p-menthane-1,8-bis(pyridine-3-methyl)amine] | 5.7 | 38.0 | 10.2 | 30.6 | 19.2 | 41.5 | 41.4 | 44.6 | 86.1 | 65.3 | 95.2 | 84.9
4 | CC1(NCc2ccncc2)CCC(C(C)(C)NCc2ccncc2)CC1 (stereo not drawn) [cis-p-menthane-1,8-bis(pyridine-4-methyl)amine] | 19.0 | 28.6 | 37.9 | 34.5 | 40.6 | 32.7 | 71.5 | 53.5 | 91.2 | 71.3 | 96.5 | 86.7
5 | CC1(NCc2ccc[nH]2)CCC(C(C)(C)NCc2ccc[nH]2)CC1 (stereo not drawn) [cis-p-menthane-1,8-bis(pyrrole-2-methyl)amine] | 1.7 | 15.4 | 60.5 | 26.5 | 87.7 | 28.6 | 93.1 | 48.2 | 91.9 | 71.5 | 94.4 | 78.3
6 | CC1(NCc2cccs2)CCC(C(C)(C)NCc2cccs2)CC1 (stereo not drawn) [cis-p-menthane-1,8-bis(thiophen-2-methyl)amine] | 0.8 | 13.3 | 1.5 | 28.9 | 5.8 | 39.2 | 50.0 | 45.3 | 75.1 | 51.0 | 86.0 | 59.1
7 | CC1(N=Cc2ccccc2C(F)(F)F)CCC(C(C)(C)N=Cc2ccccc2C(F)(F)F)CC1 (stereo not drawn) [cis-p-menthane-1,8-bis-(2-trifluoromethylbenzyl)Schiff base, reference compound] | – | – | 20.9 | 9 | 15.4 | 13.2 | 2.7 | 17.7 | 20.6 | 12.1 | 34.8 | 21.2
8 | CC(C)(NCc1ccccc1C(F)(F)F)[C@H]1CC[C@@](C)(NCc2ccccc2C(F)(F)F)CC1 [cis-p-menthane-1,8-bis-(2-trifluoromethylbenzyl)amine] | 51.9 | 36.9 | 57.0 | 43.6 | 68.0 | 49.0 | 93. | 59.6 | 100 | 87.4 | 100 | 90.3
